# Measurements: patent US4623662A, “Antiatherosclerotic ureas and thioureas” (American Cyanamid Company, priority 1985, dated 1986)
# Target: T1, fatty acyl CoA: cholesterol acyl transferase (ACAT) (Rattus norvegicus, UniProt O70536)
# T1 construct: The supernatant, containing the microsomal fraction, served as the source of the cholesterol-esterifying enzyme; from tissue; host or cells: rat adrenals, supernatant of 1,000 x g centrifugation containing the microsomal fraction
# T1 sequence (O70536 1-545): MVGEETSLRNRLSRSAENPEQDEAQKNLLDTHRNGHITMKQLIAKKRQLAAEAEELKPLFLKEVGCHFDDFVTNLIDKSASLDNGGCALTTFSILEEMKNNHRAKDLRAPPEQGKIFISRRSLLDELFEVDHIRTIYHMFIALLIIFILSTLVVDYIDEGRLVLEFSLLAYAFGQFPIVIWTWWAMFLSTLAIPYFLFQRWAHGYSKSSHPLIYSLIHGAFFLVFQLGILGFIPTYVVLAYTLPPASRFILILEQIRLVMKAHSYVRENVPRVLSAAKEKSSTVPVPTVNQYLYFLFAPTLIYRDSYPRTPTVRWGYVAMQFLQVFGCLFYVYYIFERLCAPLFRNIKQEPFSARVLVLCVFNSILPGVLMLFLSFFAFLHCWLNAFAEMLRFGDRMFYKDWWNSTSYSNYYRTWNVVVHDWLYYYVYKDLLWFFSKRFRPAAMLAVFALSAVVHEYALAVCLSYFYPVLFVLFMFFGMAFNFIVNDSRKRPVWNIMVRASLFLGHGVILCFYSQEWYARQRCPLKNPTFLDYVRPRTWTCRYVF
# Assay: Inhibition of fatty acyl CoA:cholesterol acyl transferase (ACAT), rat adrenal enzyme
# Format: biochemical
# Details: rat adrenal ACAT; final concentration 5.2 μg/ml; read-out: % Inhibition
# How it was run: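 Enzyme source was the microsomal supernatant of rat adrenal homogenate (0.2M potassium phosphate, pH 7.4) with BSA, preincubated with compound (5.2 μg/ml final for single-point) for 10 min at 37° C. Then [14C]oleoyl CoA added, 10 min at 37° C. TLC-separated cholesteryl ester was counted; percent inhibition versus control, IC50 from several concentrations.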
row,SMILES,inhibition at 5.2 µg/mL [%]
1,"CCCCCCCN(Cc1ccco1)C(=O)Nc1cc(C)c(C)cc1C [1-(2-Furanylmethyl)-1-heptyl-3-(2,4,5-trimethylphenyl)urea]",93.8
2,CCCCN(Cc1ccccc1)C(=O)Nc1ccc(Cl)cc1C [1-(n-Butyl)-1-benzyl-3-(4-chloro-2-methylphenyl)urea],89
3,Cc1cc(Cl)ccc1NC(=O)N(Cc1ccc(Cl)cc1)Cc1cccc2ccccc12 [1-(4-Chlorobenzyl)-1-(1-naphthylmethyl)-3-(2-methyl-4-chlorophenyl)urea],94
4,"CCCCCCCN(Cc1ccc(OCCCC)cc1)C(=O)Nc1ccc(Cl)cc1Cl [1-(n-Heptyl)-(4-n-butoxybenzyl)-3-(2,4-dichlorophenyl)urea]",79.9
5,"CCCCCOc1ccc(CN(Cc2ccc(CCCCC)cc2)C(=O)Nc2c(Cl)cc(Cl)cc2Cl)cc1 [1-(4-n-Pentylbenzyl)-1-(4-n-pentyloxybenzyl)-3-(2,4,6-trichlorophenyl)urea]",95.5
6,"CCCCCCCN(Cc1ccc(OCCCC)cc1)C(=O)Nc1ccc(C)cc1C [1-(n-Heptyl)-1-(4-butyloxybenzyl)-3-(2,4-dimethylphenyl)urea]",94.6
7,"CCCCOc1ccc(CN(Cc2ccccc2)C(=O)Nc2ccc(Cl)cc2Cl)cc1 [1-Benzyl-1-(4-n-butoxybenzyl)-3-(2,4-dichlorophenyl)urea]",80

# The next lines start with the values.
row,inhibition at 5.2 µg/mL [%],SMILES
1,95.8,"CCCCOc1ccc(CN(Cc2ccccc2)C(=O)Nc2cc(C)c(C)cc2C)cc1 [1-Benzyl-1-(4-butyloxybenzyl)-3-(2,4,5-trimethylphenyl)urea]"
2,97.4,CCCCCCCN(Cc1ccc(CCCC)cc1)C(=O)Nc1ccccc1C [1-(n-Heptyl)-1-(4-n-butylbenzyl)-3-(2-methylphenyl)urea]
3,92.5,CCCCCCCN(Cc1ccc(CCCC)cc1)C(=O)Nc1ccc(Cl)cc1C [1-(n-Heptyl)-1-(4-n-butylbenzyl)-3-(2-methyl-4-chlorophenyl)urea]
4,93.8,CCCCCCCN(Cc1ccc(CCCC)cc1)C(=O)Nc1cccc(C)c1 [1-(n-Heptyl)-1-(4-n-butylbenzyl)-3-(3-methylphenyl)urea]

# Same assay, conditions: rat adrenal ACAT; several concentrations
row,IC50 [nM],SMILES
1,540,"Cc1cc(Cl)cc(C)c1NC(=O)N(CCC(C)C)Cc1ccc(C(C)C)cc1 [1-(Isopentyl)-1-[4-(isopropyl)benzyl]-3-(4-chloro-2,6-dimethylphenyl)urea]"
2,350,"CCCCCCCN(Cc1ccc(C(C)C)cc1)C(=O)Nc1c(F)cc(F)cc1F [1-(n-Heptyl)-1-[4-(isopropyl)benzyl]-3-(2,4,6-trifluorophenyl)urea]"

# Test system: cholesterol absorption
# Assay: Inhibition of cholesterol absorption in rats fed 1% cholesterol:0.5% cholic acid diet
# Format: in vivo, male Sprague-Dawley rats
# Details: po, 336 h; rat; dose .01% of the diet, 2 weeks; read-out: LS (liver sterol), percentage of control values
# How it was run: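 Male Sprague-Dawley rats (150-170 g) fed 1% cholesterol:0.5% cholic acid diet for 2 weeks with compound at 0.001, 0.003, 0.01 or 0.03% of diet. Serum cholesterol measured enzymatically; liver cholesterol from saponified large-lobe sample after petroleum ether extraction. Liver and serum sterol expressed as percent of untreated controls.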
row,SMILES,response vs control in vivo at 0.01 % [%]
1,"CCCCCCCN(Cc1ccc(C(C)C)cc1)C(=O)Nc1c(F)cc(F)cc1F [1-(n-Heptyl)-1-[4-(isopropyl)benzyl]-3-(2,4,6-trifluorophenyl)urea]",23

# Same assay, conditions: po, 336 h; rat; dose .01% of the diet, 2 weeks; read-out: SS (serum sterol), percentage of control values
row,SMILES,response vs control in vivo at 0.01 % [%]
1,"CCCCCCCN(Cc1ccc(C(C)C)cc1)C(=O)Nc1c(F)cc(F)cc1F [1-(n-Heptyl)-1-[4-(isopropyl)benzyl]-3-(2,4,6-trifluorophenyl)urea]",40

# Same assay, conditions: po, 336 h; rat; dose .03% of the diet, 2 weeks; read-out: LS (liver sterol), percentage of control values
row,SMILES,response vs control in vivo at 0.03 % [%]
1,"CCCCOc1ccc(CN(Cc2ccccc2)C(=O)Nc2cc(C)c(C)cc2C)cc1 [1-Benzyl-1-(4-butyloxybenzyl)-3-(2,4,5-trimethylphenyl)urea]",12
2,"CCCCCCCN(Cc1ccco1)C(=O)Nc1cc(C)c(C)cc1C [1-(2-Furanylmethyl)-1-heptyl-3-(2,4,5-trimethylphenyl)urea]",38
3,CCCCN(Cc1ccccc1)C(=O)Nc1ccc(Cl)cc1C [1-(n-Butyl)-1-benzyl-3-(4-chloro-2-methylphenyl)urea],62
4,Cc1cc(Cl)ccc1NC(=O)N(Cc1ccc(Cl)cc1)Cc1cccc2ccccc12 [1-(4-Chlorobenzyl)-1-(1-naphthylmethyl)-3-(2-methyl-4-chlorophenyl)urea],17
5,"CCCCCCCN(Cc1ccc(OCCCC)cc1)C(=O)Nc1ccc(Cl)cc1Cl [1-(n-Heptyl)-(4-n-butoxybenzyl)-3-(2,4-dichlorophenyl)urea]",50
6,CCCCCCCN(Cc1ccc(CCCC)cc1)C(=O)Nc1ccccc1C [1-(n-Heptyl)-1-(4-n-butylbenzyl)-3-(2-methylphenyl)urea],29
7,"Cc1cc(Cl)cc(C)c1NC(=O)N(CCC(C)C)Cc1ccc(C(C)C)cc1 [1-(Isopentyl)-1-[4-(isopropyl)benzyl]-3-(4-chloro-2,6-dimethylphenyl)urea]",23
8,CCCCCCCN(Cc1ccc(CCCC)cc1)C(=O)Nc1ccc(Cl)cc1C [1-(n-Heptyl)-1-(4-n-butylbenzyl)-3-(2-methyl-4-chlorophenyl)urea],16
9,"CCCCCOc1ccc(CN(Cc2ccc(CCCCC)cc2)C(=O)Nc2c(Cl)cc(Cl)cc2Cl)cc1 [1-(4-n-Pentylbenzyl)-1-(4-n-pentyloxybenzyl)-3-(2,4,6-trichlorophenyl)urea]",76
10,"CCCCCCCN(Cc1ccc(OCCCC)cc1)C(=O)Nc1ccc(C)cc1C [1-(n-Heptyl)-1-(4-butyloxybenzyl)-3-(2,4-dimethylphenyl)urea]",22
11,CCCCCCCN(Cc1ccc(CCCC)cc1)C(=O)Nc1cccc(C)c1 [1-(n-Heptyl)-1-(4-n-butylbenzyl)-3-(3-methylphenyl)urea],42
12,"CCCCOc1ccc(CN(Cc2ccccc2)C(=O)Nc2ccc(Cl)cc2Cl)cc1 [1-Benzyl-1-(4-n-butoxybenzyl)-3-(2,4-dichlorophenyl)urea]",49

# Same assay, conditions: po, 336 h; rat; dose .03% of the diet, 2 weeks; read-out: SS (serum sterol), percentage of control values
row,SMILES,response vs control in vivo at 0.03 % [%]
1,"CCCCOc1ccc(CN(Cc2ccccc2)C(=O)Nc2cc(C)c(C)cc2C)cc1 [1-Benzyl-1-(4-butyloxybenzyl)-3-(2,4,5-trimethylphenyl)urea]",43
2,"CCCCCCCN(Cc1ccco1)C(=O)Nc1cc(C)c(C)cc1C [1-(2-Furanylmethyl)-1-heptyl-3-(2,4,5-trimethylphenyl)urea]",44
3,CCCCN(Cc1ccccc1)C(=O)Nc1ccc(Cl)cc1C [1-(n-Butyl)-1-benzyl-3-(4-chloro-2-methylphenyl)urea],72
4,Cc1cc(Cl)ccc1NC(=O)N(Cc1ccc(Cl)cc1)Cc1cccc2ccccc12 [1-(4-Chlorobenzyl)-1-(1-naphthylmethyl)-3-(2-methyl-4-chlorophenyl)urea],35
5,"CCCCCCCN(Cc1ccc(OCCCC)cc1)C(=O)Nc1ccc(Cl)cc1Cl [1-(n-Heptyl)-(4-n-butoxybenzyl)-3-(2,4-dichlorophenyl)urea]",68
6,CCCCCCCN(Cc1ccc(CCCC)cc1)C(=O)Nc1ccccc1C [1-(n-Heptyl)-1-(4-n-butylbenzyl)-3-(2-methylphenyl)urea],35
7,"Cc1cc(Cl)cc(C)c1NC(=O)N(CCC(C)C)Cc1ccc(C(C)C)cc1 [1-(Isopentyl)-1-[4-(isopropyl)benzyl]-3-(4-chloro-2,6-dimethylphenyl)urea]",23
8,CCCCCCCN(Cc1ccc(CCCC)cc1)C(=O)Nc1ccc(Cl)cc1C [1-(n-Heptyl)-1-(4-n-butylbenzyl)-3-(2-methyl-4-chlorophenyl)urea],35
9,"CCCCCOc1ccc(CN(Cc2ccc(CCCCC)cc2)C(=O)Nc2c(Cl)cc(Cl)cc2Cl)cc1 [1-(4-n-Pentylbenzyl)-1-(4-n-pentyloxybenzyl)-3-(2,4,6-trichlorophenyl)urea]",100
10,"CCCCCCCN(Cc1ccc(OCCCC)cc1)C(=O)Nc1ccc(C)cc1C [1-(n-Heptyl)-1-(4-butyloxybenzyl)-3-(2,4-dimethylphenyl)urea]",26
11,CCCCCCCN(Cc1ccc(CCCC)cc1)C(=O)Nc1cccc(C)c1 [1-(n-Heptyl)-1-(4-n-butylbenzyl)-3-(3-methylphenyl)urea],49
12,"CCCCOc1ccc(CN(Cc2ccccc2)C(=O)Nc2ccc(Cl)cc2Cl)cc1 [1-Benzyl-1-(4-n-butoxybenzyl)-3-(2,4-dichlorophenyl)urea]",53
